The values below are quoted from earlier work in patent publication US6403086B1, “Administering extracts of morinda citrifolia, red wine, prune, blueberry, pomegranate, apple and an enzyme mixture” (priority 2001, dated 2002).

For this data set the following is noted: supplementation with 30 IU to 100 IU.

As for vitamin E, the “lower risk of heart disease” value is reported as 41%.
